The record followed here is US20190119196A1, “COMPOUNDS FOR THE TREATMENT OF […]” (priority 2016, published 2019).

Assay [1] has as its system L6-myotubes. The experiment in a line: Glucose uptake in differentiated L6-myotubes (3H-2-deoxy-glucose). The assay is classed as cell-based. The settings on record: read-out: Biological example 1: glucose uptake, % increase over the basal level. The method, then: (§1) L6-myoblasts were grown in Dulbecco's Modified Eagle's Medium (DMEM) containing 4,5 g/I glucose supplemented with 10% fetal bovine serum, 2 mM L-Glutamine, 50 U/ml penicillin, 50 μg/ml streptomycin and 10 mM HEPES. Cells were plated at 1×10^5 cells per ml in 24-well plates. After reaching 90% confluence the cells were grown in medium containing 2% FBS for 7 days where upon cells differentited into myotubes.
Differentiated L6-myotubes were serum-starved over night in medium containing 0.5% fatty-acid free BSA and stimulated with agonist, […], glucose free medium or PBS and another portion of agonist was added to glucose free medium. […] Cell lysate was mixed with scintillation buffer (Emulsifier Safe, Perkin Elmer and radioactivity detected in a β-counter (Tri-Carb 2800TR, Perkin Elmer). The numerical values in the table are given as % increase over the basal level.

Assay [2] relates to L6-myotubes. The experiment in a line: Measurement of intracellular cAMP levels (alpha screen cAMP kit). Type of assay: cell-based. Conditions: agonist final concentration 1×10^−5, 15 min; differentiated cells; 1 mM IBMX. The method, then:
as §1
Differentiated cells were serum-starved over night and stimulated with agonist, final concentration 1×10−^5, for 15 min in stimulation buffer (HBSS supplemented with 1% BSA, 5 mM HEPES and 1 mM IBMX, pH 7,4) The medium was then aspirated and to end the reaction 100 μL of 95% EtOH was added to each well of a 24-well plate and cells were kept in −20° C. over night. The EtOH was let to evaporate and 500 μL of lysis buffer (1% BSA, 5 mM HEPES and 0,3% Tween-20, pH 7.4) was added to each well before put in −80° C. for 30 min and then kept in −20° C. Intracellular cAMP levels were detected using an alpha screen cAMP kit (6760635D from Perkin Elmer). The numerical values in the table are given as % increase over the basal level.

The next assay concerns the target T1, human β2-adrenoceptor (Homo sapiens, UniProt P07550).
T1 construct: expressed in transfected cells
The experiment in a line: 3H-CGP 12177 whole cell β2 binding. The method, then: ^3H-CGP 12177 Whole Cell β2 Binding
Chinese Hamster Ovary (CHO) cells stably expressing the human β2-adrenoceptor were grown in Dulbecco's modified Eagle's medium nutrient mix F12 (DMEM/F12) containing 10% fetal calf serum and 2 mM L-glutamine in a 37° C. humidified 5% CO2:95% air atmosphere. The cells were seeded (100 000 cells/mL) into white-sided, clear-bottomed 96-well isoplates and allowed to grow to confluence for the following day's experiment. Next day, the media was removed from each well of the isoplate. Aliquots of the test compounds (10^−2 M in DMSO) were diluted in DMEM/F12 containing 2 mM L-glutamine (serum-free media) to final concentration ranges of 10^−4 M to 10^−10 M and added to each well. The radioligand ^3H-CGP 12177 was diluted in the same medium (˜1 nM final well concentration) and added to each well. Propranolol and CGP 12177 (10 μM) were used to measure non-specific binding. The cells were incubated for 2 hours at 37° C. After incubation, the cells were washed twice by the addition and removal of 200 μL ice-cold phosphate-buffered saline (PBS). Cells were then lysed with Optiphase Supermix cocktail (100 μL/well) and a clear sealant top was applied to the plate. The plate was left overnight in the dark at room temperature, centrifuged (1000 rpm, 1 min) and measured in a MicroBeta2 Microplate Counter (Perkin Elmer) (10 minutes pre-incubation, 2 min counts/well).
All data points on each binding curve were measured in duplicates. Each 96-well plate also contained four determinations of total and non-specific binding. Non-specific binding was determined in the presence of CGP 12177 and propranolol (10 μM). […] All data points are measured in counts per minute (CPM) and converted into disintegrations per minute (DPM) by dividing the count rate (CPM) with the counting efficiency of the instruments detector (57%). The numerical values were obtained by using the GraphPad Prism 7 programme and are given as -log K (pKi) in the table.

The mark [3] stands for this setting: agonist final concentration 1×10^−5, differentiated L6-myotubes, 50 nM 3H-2-deoxy-glucose.
The mark [4] stands for this setting: CHO cells stably expressing the human β2-adrenoceptor, ~1 nM 3H-CGP 12177, 2 hours at 37° C., read-out: Biological example 3: -log K (pKi), 3H-CGP 12177 whole cell β2 binding (converted).

Counter-ions that a name gives are not always drawn. Like-named read-outs stand apart in the source and are kept apart here.

T1 sequence (P07550 whole entry): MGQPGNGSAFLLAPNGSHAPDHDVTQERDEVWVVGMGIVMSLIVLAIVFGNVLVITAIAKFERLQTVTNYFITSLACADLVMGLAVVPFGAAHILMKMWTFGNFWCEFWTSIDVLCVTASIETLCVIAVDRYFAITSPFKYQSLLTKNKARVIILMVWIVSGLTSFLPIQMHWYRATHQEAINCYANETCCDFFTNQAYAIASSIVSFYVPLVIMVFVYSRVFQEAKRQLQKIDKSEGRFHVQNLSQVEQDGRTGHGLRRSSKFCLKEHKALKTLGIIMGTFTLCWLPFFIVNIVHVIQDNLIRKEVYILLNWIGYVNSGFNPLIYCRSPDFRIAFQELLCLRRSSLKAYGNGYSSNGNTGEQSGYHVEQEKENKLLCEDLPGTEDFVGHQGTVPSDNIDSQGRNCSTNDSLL

For `CCCCNC(C)C(O)c1ccc(O)cc1` (stereo not drawn) [Example 12, 4-(2-(Butylamino)-1-hydroxypropyl)phenol acetate], the activation with L6-myotubes [1] (setting [3]) turned out to be 40%. Besides, the “Biological example 2: intracellular cAMP levels, % increase over the basal level” value in the assay with L6-myotubes [2] was found to be 190%. Further, the Ki on human β2-adrenoceptor (setting [4]) was 7.94 µM.
On the same counts, the results for `CCCCNCC(O)c1ccc(O)cc1` (stereo not drawn) [Example 1, 4-(2-(Butylamino)-1-hydroxyethyl)phenol] are 50%, 1% and 25.1 µM.
On the same counts, the results for `CCCCNCC(O)c1cccc(Cl)c1` (stereo not drawn) [Example 2, 2-(Butylamino)-1-(3-chlorophenyl)ethan-1-ol] are 27%, 3% and 6.31 µM.
For `CCCCNCC(O)c1ccc(O)c(Cl)c1` (stereo not drawn) [Example 20, 4-(2-(Butylamino)-1-hydroxyethyl)-2-chlorophenol], in that order: 12%, −19% and 3.16 µM.
Regarding `Oc1ccc(C(O)CNCCCC2CCCCC2)cc1` (stereo not drawn) [Example 21, 4-(2-((3-Cyclohexylpropyl)amino)-1-hydroxyethyl)phenol], the activation with L6-myotubes [1] (setting [3]) was 37%. The “Biological example 2: intracellular cAMP levels, % increase over the basal level” value in the assay on L6-myotubes [2] was −16%. Besides, the Ki on human β2-adrenoceptor (setting [4]) was 2 µM.
As for `CCCCNCC(O)c1cc(Cl)c(N)c(C(F)(F)F)c1` (stereo not drawn) [Example 30, 1-(4-Amino-3-chloro-5-(trifluoromethyl)phenyl)-2-(butylamino)ethan-1-ol], in the assay on L6-myotubes [1] (setting [3]), the activation is 50%. Besides, in the assay on L6-myotubes [2], the “Biological example 2: intracellular cAMP levels, % increase over the basal level” value came to 231%. In addition, at human β2-adrenoceptor, the Ki is 0.0794 µM.
As for `CC(C)(C)NCC(O)c1ccc(O)cc1` (stereo not drawn) [Example 4, 4-(2-(tert-Butylamino)-1-hydroxyethyl)phenol], the activation with L6-myotubes [1] stood at 62%. The “Biological example 2: intracellular cAMP levels, % increase over the basal level” value in the assay with L6-myotubes [2] stood at 40%. Besides, at human β2-adrenoceptor (setting [4]), the Ki was 1 µM.
Take `Oc1ccc(C(O)CNCCC2CC2)cc1` (stereo not drawn) [Example 22, 4-(2-((2-Cyclopropylethyl)amino)-1-hydroxyethyl)phenol]: the activation in the assay with L6-myotubes [1] (setting [3]) came to 30%. Also, the “Biological example 2: intracellular cAMP levels, % increase over the basal level” value in the assay on L6-myotubes [2] turned out to be 20%. Also, the Ki at human β2-adrenoceptor (setting [4]) was 12.6 µM.
Take `CCCCNCC(O)c1cc(Cl)c(N)c(Cl)c1` (stereo not drawn) [Example 29, 1-(4-Amino-3,5-dichlorophenyl)-2-(butylamino)ethan-1-ol trifluoroacetate]: the activation in the assay on L6-myotubes [1] is 48%. Besides, the “Biological example 2: intracellular cAMP levels, % increase over the basal level” value in the assay on L6-myotubes [2] stood at 222%. The compound also showed a Ki on human β2-adrenoceptor of 0.316 µM.
`Oc1ccc(C(O)CNC2CCCC2)cc1` (stereo not drawn) [Example 7, 4-(2-(cyclopentylamino)-1-hydroxyethyl)phenol acetate]: the activation with L6-myotubes [1] (setting [3]) amounted to 23%. In addition, the “Biological example 2: intracellular cAMP levels, % increase over the basal level” value with L6-myotubes [2] worked out at 1%. Also, the Ki on human β2-adrenoceptor (setting [4]) is 5.01 µM.
For `CCCC(C)NCC(O)c1ccc(O)c(Cl)c1` (mixture of isomers) [Example 19, 2-Chloro-4-(1-hydroxy-2-(pentan-2-ylamino)ethyl)phenol], in that order: 30%, −52% and 0.501 µM.
On to `CCCC(C)NCC(O)c1cc(Cl)c(N)c(Cl)c1` (mixture of isomers) [Example 28, 1-(4-Amino-3,5-dichlorophenyl)-2-(pentan-2-ylamino)ethan-1-ol trifluoroacetate], for which the activation with L6-myotubes [1] stood at 39%. The “Biological example 2: intracellular cAMP levels, % increase over the basal level” value in the assay with L6-myotubes [2] is reported as 2%. Also, the Ki on human β2-adrenoceptor was 0.398 µM.
Regarding `OC(CNCC1CCCCC1)c1ccccc1` (stereo not drawn) [Example 10, 2-((cyclohexylmethyl)amino)-1-phenylethan-1-ol], the activation with L6-myotubes [1] (setting [3]) is 39%. Moreover, the “Biological example 2: intracellular cAMP levels, % increase over the basal level” value in the assay with L6-myotubes [2] turned out to be 5%. In addition, on human β2-adrenoceptor (setting [4]), the Ki was 25.1 µM.
On the same counts, the results for `CCCC(C)NC(C)C(O)c1ccc(O)cc1` (mixture of isomers) [Example 13, 4-(1-Hydroxy-2-(pentan-2-ylamino)propyl)phenol acetate] are 42%, −1% and 15.8 µM.
On the same counts, the results for `CCCCNCC(O)c1ccc(Cl)c(N)c1` (stereo not drawn) [Example 34, 1-(3-Amino-4-chlorophenyl)-2-(butylamino)ethan-1-ol] are 20%, 0% and 3.16 µM.
On the same counts, the results for `CCCC(C)NCC(O)c1cccc(O)c1` (mixture of isomers) [Example 15, 3-(1-Hydroxy-2-(pentan-2-ylamino)ethyl)phenol] are 31%, 20% and 0.794 µM.
As to `CCCCNCC(O)c1ccc(Cl)c(O)c1` (stereo not drawn) [Example 32, 5-(2-(Butylamino)-1-hydroxyethyl)-2-chlorophenol], in the assay on L6-myotubes [1] (setting [3]), the activation was determined as 53%. Further, the “Biological example 2: intracellular cAMP levels, % increase over the basal level” value with L6-myotubes [2] was 371%. Further, at human β2-adrenoceptor (setting [4]), the Ki was 6.31 µM.
As to `CCCC(C)NCC(O)c1cc(Cl)c(O)c(Cl)c1` (mixture of isomers) [Example 27, 2,6-Dichloro-4-(1-hydroxy-2-(pentan-2-ylamino)ethyl)phenol], the activation in the assay with L6-myotubes [1] (setting [3]) was 6%. In the assay on L6-myotubes [2], the “Biological example 2: intracellular cAMP levels, % increase over the basal level” value is on record as 86%. Moreover, the Ki on human β2-adrenoceptor (setting [4]) is 1.26 µM.
On the same counts, the results for `CCCCCCNCC(O)c1ccc(O)cc1` (stereo not drawn) [Example 17, 4-(2-(Hexylamino)-1-hydroxyethyl)phenol acetate] are 26%, 70% and 6.31 µM.
For `CCCCCCCCNCC(O)c1ccc(O)cc1` (stereo not drawn) [Example 18, 4-(1-Hydroxy-2-(octylamino)ethyl)phenol acetate], in that order: 26%, −23% and 6.31 µM.
For `CCCCNC[C@H](O)c1ccc(O)cc1` [Example 11, (R)-4-(2-(Butylamino)-1-hydroxyethyl)phenol hemisulfate], in that order: 50%, 10% and 39.8 µM.
